According to US20180147196A1, “PYRIDIN-3-YL ACETIC ACID DERIVATIVES AS INHIBITORS OF HUMAN IMMUNODEFICIENCY VIRUS REPLICATION” (priority 2015, published 2018):
Read-outs that look alike come from different tables or passages of the source.

System: NL-RLuc virus
Experiment: Inhibition of HIV replication (NL-RLuc virus in MT-2 cells, luciferase readout)
Format: cell-based
Conditions: Human immunodeficiency virus 1, MT2, 120 h
From the text: Inhibition of HIV replication: A recombinant NL-RLuc proviral clone was constructed in which a section of the nef gene from NL4-3 was replaced with the Renilla Luciferase gene. This virus is fully infectious and can undergo multiple cycles of replication in cell culture. In addition, the luciferous reporter provides a simple and easy method for quantitating the extent of virus growth and consequently, the antiviral activity of test compounds. The plasmid pNLRLuc contains the proviral NL-Rluc DNA cloned into pUC18 at the Pvull site. The NL-RLuc virus was prepared by transfection of 293T cells with the plasmid pNLRLuc. Transfections were performed using the LipofectAMINE PLUS kit from Invitrogen (Carlsbad, Calif.) according to the manufacturer and the virus generated was titered in MT-2 cells. For susceptibility analyses, the titrated virus was used to infect MT-2 cells in the presence of compound, and after 5 days of incubation, cells were processed and quantitated for virus growth by the amount of expressed luciferase. Assay media was RPMI 1640 supplemented with 10% heat inactivated fetal bovine serum (FBS), 100 units/ml penicillin G/100 units/ml streptomycin, 10 mM HEPES buffer pH 7.55 and 2 mM L-glutamine. The results from at least 2 experiments were used to calculate the EC50 values. Luciferase was quantitated using the Dual Luciferase kit from Promega (Madison, Wis.). Susceptibility of viruses to compounds was determined by incubation in the presence of serial dilutions of the compound. The 50% effective concentration (EC50) was calculated by using the exponential form of the median effect equation where (Fa)=1/[1+(ED50/drug conc.)^m] (Johnson V A, Byington R T. Infectivity Assay. In Techniques in HIV Research. ed. Aldovini A, Walker BD. 71-76. New York: Stockton Press.1990). Activity equal to A refers to a compound having an EC50<100 nM, while B and C denote compounds having an EC50 between 100 nM and 1 uM (B) or >1 uM (C).

## Cc1nc(C)c([C@H](OC(C)(C)C)C(=O)O)c(N2CCC(C)(C)CC2)c1C#CCOCc1ccccc1 [Example 1, (S)-2-(5-(3-(Benzyloxy)prop-1-yn-1-yl)-4-(4,4-dimethylpiperidin-1-yl)-2,6-dimethylpyridin-3-yl)-2-(tert-butoxy)acetic acid]
read-out: Activity
  EC50: 0.1 to 1 µM
read-out: EC50 μM
  EC50: 0.282 µM

## Cc1nc(C)c([C@H](OC(C)(C)C)C(=O)O)c(N2CCC(C)(C)CC2)c1C#CC1(O)CCN(Cc2ccccc2)CC1 [Example 2, (S)-2-(5-((1-Benzyl-4-hydroxypiperidin-4-yl)ethynyl)-4-(4,4-dimethylpiperidin-1-yl)-2,6-dimethylpyridin-3-yl)-2-(tert-butoxy)acetic acid]
read-out: Activity
  EC50: < 0.1 µM
read-out: EC50 μM
  EC50: 0.064 µM

## Cc1nc(C)c([C@H](OC(C)(C)C)C(=O)O)c(N2CCC(C)(C)CC2)c1/C=C/c1ccc(F)cc1 [Example 3, (S,E)-2-(tert-Butoxy)-2-(4-(4,4-dimethylpiperidin-1-yl)-5-(4-fluorostyryl)-2,6-dimethylpyridin-3-yl)acetic acid]
read-out: Activity
  EC50: < 0.1 µM

## Cc1nc(C)c([C@H](OC(C)(C)C)C(=O)O)c(N2CCC(C)(C)CC2)c1CCc1ccc(F)cc1 [Example 4, (S)-2-(tert-Butoxy)-2-(4-(4,4-dimethylpiperidin-1-yl)-5-(4-fluorophenethyl)-2,6-dimethylpyridin-3-yl)acetic acid]
read-out: Activity
  EC50: < 0.1 µM

## Cc1nc(C)c([C@H](OC(C)(C)C)C(=O)O)c(N2CCC(C)(C)CC2)c1/C=C/c1ccc(-c2ccccc2)cc1 [Example 5, (S,E)-2-(5-(2-([1,1′-Biphenyl]-4-yl)vinyl)-4-(4,4-dimethylpiperidin-1-yl)-2,6-dimethylpyridin-3-yl)-2-(tert-butoxy)acetic acid]
read-out: Activity
  EC50: < 0.1 µM
read-out: EC50 μM
  EC50: 0.035 µM

## Cc1nc(C)c([C@H](OC(C)(C)C)C(=O)O)c(N2CCC(C)(C)CC2)c1CCc1ccc(-c2ccccc2)cc1 [Example 6, (S)-2-(5-(2-([1,1′-Biphenyl]-4-yl)ethyl)-4-(4,4-dimethylpiperidin-1-yl)-2,6-dimethylpyridin-3-yl)-2-(tert-butoxy)acetic acid]
read-out: Activity
  EC50: < 0.1 µM

## Cc1nc(C)c([C@H](OC(C)(C)C)C(=O)O)c(N2CCC(C)(C)CC2)c1/C=C/c1ccc(C(F)(F)F)cc1 [Example 7, (S,E)-2-(tert-Butoxy)-2-(4-(4,4-dimethylpiperidin-1-yl)-2,6-dimethyl-5-(4-(trifluoromethyl)styryl)pyridin-3-yl)acetic acid]
read-out: Activity
  EC50: < 0.1 µM

## Cc1nc(C)c([C@H](OC(C)(C)C)C(=O)O)c(N2CCC(C)(C)CC2)c1CCc1ccc(C(F)(F)F)cc1 [Example 8, (S)-2-(tert-Butoxy)-2-(4-(4,4-dimethylpiperidin-1-yl)-2,6-dimethyl-5-(4-(trifluoromethyl)phenethyl)pyridin-3-yl)acetic acid]
read-out: Activity
  EC50: 0.1 to 1 µM

## Cc1nc(C)c([C@H](OC(C)(C)C)C(=O)O)c(N2CCC(C)(C)CC2)c1/C=C/Cc1ccccc1 [Example 9, (S,E)-2-(tert-Butoxy)-2-(4-(4,4-dimethylpiperidin-1-yl)-2,6-dimethyl-5-(3-phenylprop-1-en-1-yl)pyridin-3-yl)acetic acid]
read-out: Activity
  EC50: 0.1 to 1 µM
read-out: EC50 μM
  EC50: 0.281 µM

## Cc1nc(C)c([C@H](OC(C)(C)C)C(=O)O)c(N2CCC(C)(C)CC2)c1CCCc1ccccc1 [Example 10, (S)-2-(tert-Butoxy)-2-(4-(4,4-dimethylpiperidin-1-yl)-2,6-dimethyl-5-(3-phenylpropyl)pyridin-3-yl)acetic acid]
read-out: Activity
  EC50: 0.1 to 1 µM

## Cc1nc(C)c([C@H](OC(C)(C)C)C(=O)O)c(N2CCC(C)(C)CC2)c1/C=C/c1ccccc1 [Example 11, (S,E)-2-(tert-Butoxy)-2-(4-(4,4-dimethylpiperidin-1-yl)-2,6-dimethyl-5-styrylpyridin-3-yl)acetic acid]
read-out: Activity
  EC50: < 0.1 µM
read-out: EC50 μM
  EC50: 0.027 µM

## Cc1nc(C)c([C@H](OC(C)(C)C)C(=O)O)c(N2CCC(C)(C)CC2)c1CCc1ccccc1 [Example 12, (S)-2-(tert-Butoxy)-2-(4-(4,4-dimethylpiperidin-1-yl)-2,6-dimethyl-5-phenethylpyridin-3-yl)acetic acid]
read-out: Activity
  EC50: 0.1 to 1 µM

## Cc1nc(C)c([C@H](OC(C)(C)C)C(=O)O)c(N2CCC(C)(C)CC2)c1Br [Example 13, (S)-2-(5-Bromo-4-(4,4-dimethylpiperidin-1-yl)-2,6-dimethylpyridin-3-yl)-2-(tert-butoxy)acetic acid]
read-out: Activity
  EC50: 0.1 to 1 µM

## Cc1nc(C)c([C@H](OC(C)(C)C)C(=O)O)c(N2CCC(C)(C)CC2)c1C1=CCCCC1 [Example 14, (S)-2-(tert-Butoxy)-2-(5-(cyclohex-1-en-1-yl)-4-(4,4-dimethylpiperidin-1-yl)-2,6-dimethylpyridin-3-yl)acetic acid]
read-out: Activity
  EC50: 0.1 to 1 µM
read-out: EC50 μM
  EC50: 0.136 µM

## Cc1nc(C)c([C@H](OC(C)(C)C)C(=O)O)c(N2CCC(C)(C)CC2)c1C1=CCC(C(C)(C)C)CC1 (stereo partly drawn) [Example 15, (2S)-2-(tert-Butoxy)-2-(5-(4-(tert-butyl)cyclohex-1-en-1-yl)-4-(4,4-dimethylpiperidin-1-yl)-2,6-dimethylpyridin-3-yl)acetic acid]
read-out: Activity
  EC50: 0.1 to 1 µM

## Cc1nc(C)c([C@H](OC(C)(C)C)C(=O)O)c(N2CCC(C)(C)CC2)c1C1=CCN(C(=O)OC(C)(C)C)CC1 [Example 16, (S)-2-(tert-Butoxy)-2-(1′-(tert-butoxycarbonyl)-4-(4,4-dimethylpiperidin-1-yl)-2,6-dimethyl-1′,2′,3′,6′-tetrahydro-[3,4′-bipyridin]-5-yl)acetic acid]
read-out: Activity
  EC50: < 0.1 µM

## Cc1nc(C)c([C@H](OC(C)(C)C)C(=O)O)c(N2CCC(C)(C)CC2)c1/C=C/CNC(=O)OCc1ccccc1 [Example 17, (S,E)-2-(5-(3-(((Benzyloxy)carbonyl)amino)prop-1-en-1-yl)-4-(4,4-dimethylpiperidin-1-yl)-2,6-dimethylpyridin-3-yl)-2-(tert-butoxy)acetic acid]
read-out: Activity
  EC50: < 0.1 µM

## COC(=O)NC/C=C/c1c(C)nc(C)c([C@H](OC(C)(C)C)C(=O)O)c1N1CCC(C)(C)CC1 [Example 18, (S,E)-2-(tert-Butoxy)-2-(4-(4,4-dimethylpiperidin-1-yl)-5-(3-((methoxycarbonyl)amino)prop-1-en-1-yl)-2,6-dimethylpyridin-3-yl)acetic acid]
read-out: Activity
  EC50: 0.1 to 1 µM

## Cc1nc(C)c([C@H](OC(C)(C)C)C(=O)O)c(N2CCC(C)(C)CC2)c1C1=CCN(C(=O)OCc2ccccc2)CC1 [Example 19, (S)-2-(1′-((Benzyloxy)carbonyl)-4-(4,4-dimethylpiperidin-1-yl)-2,6-dimethyl-1′,2′,3′,6′-tetrahydro-[3,4′-bipyridin]-5-yl)-2-(tert-butoxy)acetic acid]
read-out: Activity
  EC50: < 0.1 µM

## COC(=O)N1CC=C(c2c(C)nc(C)c([C@H](OC(C)(C)C)C(=O)O)c2N2CCC(C)(C)CC2)CC1 [Example 20, (S)-2-(tert-Butoxy)-2-(4-(4,4-dimethylpiperidin-1-yl)-1′-(methoxycarbonyl)-2,6-dimethyl-1′,2′,3′,6′-tetrahydro-[3,4′-bipyridin]-5-yl)acetic acid]
read-out: Activity
  EC50: 0.1 to 1 µM

## Cc1nc(C)c([C@H](OC(C)(C)C)C(=O)O)c(N2CCC(C)(C)CC2)c1C1=CCNCC1 [Example 21, (S)-2-(tert-Butoxy)-2-(4-(4,4-dimethylpiperidin-1-yl)-2,6-dimethyl-1′,2′,3′,6′-tetrahydro-[3,4′-bipyridin]-5-yl)acetic acid]
read-out: Activity
  EC50: > 1 µM
read-out: EC50 μM
  EC50: 2.21 µM

## Cc1nc(C)c([C@H](OC(C)(C)C)C(=O)O)c(N2CCC(C)(C)CC2)c1C1=CCN(CCc2ccc(F)cc2)CC1 [Example 22, (S)-2-(tert-Butoxy)-2-(4-(4,4-dimethylpiperidin-1-yl)-1′-(4-fluorophenethyl)-2,6-dimethyl-1′,2′,3′,6′-tetrahydro-[3,4′-bipyridin]-5-yl)acetic acid]
read-out: Activity
  EC50: 0.1 to 1 µM

## Cc1nc(C)c([C@H](OC(C)(C)C)C(=O)O)c(N2CCC(C)(C)CC2)c1C1=CCN(CCCc2ccc(F)cc2)CC1 [Example 23, (S)-2-(tert-Butoxy)-2-(4-(4,4-dimethylpiperidin-1-yl)-1′-(3-(4-fluorophenyl)propyl)-2,6-dimethyl-1′,2′,3′,6′-tetrahydro-[3,4′-bipyridin]-5-yl)acetic acid]
read-out: Activity
  EC50: < 0.1 µM

## Cc1nc(C)c([C@H](OC(C)(C)C)C(=O)O)c(N2CCC(C)(C)CC2)c1C#N [Example 24, (S)-2-(tert-Butoxy)-2-(5-cyano-4-(4,4-dimethylpiperidin-1-yl)-2,6-dimethylpyridin-3-yl)acetic acid]
read-out: Activity
  EC50: 0.1 to 1 µM

## Cc1nc(C)c([C@H](OC(C)(C)C)C(=O)O)c(N2CCC(C)(C)CC2)c1C1=CC(CCOc2ccc(F)cc2)C1 (stereo partly drawn) [Example 25, (2S)-2-(tert-Butoxy)-2-(4-(4,4-dimethylpiperidin-1-yl)-5-(3-(2-(4-fluorophenoxy)ethyl)cyclobut-1-en-1-yl)-2,6-dimethylpyridin-3-yl)acetic acid]
read-out: Activity
  EC50: < 0.1 µM

## Cc1nc(C)c([C@H](OC(C)(C)C)C(=O)O)c(N2CCC(C)(C)CC2)c1C [Example 26, (S)-2-(tert-Butoxy)-2-(4-(4,4-dimethylpiperidin-1-yl)-2,5,6-trimethylpyridin-3-yl)acetic acid]
read-out: Activity
  EC50: < 0.1 µM
read-out: EC50 μM
  EC50: 0.097 µM
